Data set [1] deals with retinal function (a- and b-wave) in B6J WT mice. The data set is described as follows: Retinal function test (ERG) in laser-induced CNV mice. Format: in vivo, mouse. The settings on record: laser-induced CNV mice with and without Angio-3 treatment. The protocol:
(§1) FIG. 3A is a schematic of the experimental design on the efficacy of Angio-3 in a laser-induced choroidal neovascularization (CNV) model in mice (B6J WT mice). FIG. 3B are FFA images of baseline and at different time points post treatment. IV single injection of 100 μL of Angio-3 (25 mg/Kg Bwt) was given at Day 0 (prevention mode) and 4 days after laser (regression mode) and followed for 10 weeks. FIG. 3C is a graph showing the area of leakage by each eye for various groups. FIG. 3D are graphs of the mean area of leakage of all batches for each group. […] The attenuation retinal vascularization was better than scrambled peptide. n=6 eyes per batch; n=3 batches. Values are expressed as means±s.e.m., **P<0.01, *P<0.05, student's t-test. FIG. 3E is a graph of the result of the Retinal Function Test that measures ERG changes in Angio-3 treated and control.
Animals were dark-adapted overnight (12 h), and the preparations for recordings were carried out under dim red light. Anesthesia and pupil dilation were induced as described. Animals were lightly secured to a stage with fastener strips across the upper and lower back to ensure a stable, reproducible position for ERG recordings. […] ERGs were recorded (Espion; Diagnosis LLC, Redwood City, Calif.) with corneal monopolar electrodes (Mayo, Aichi, Japan). […]

In data set [2] the test system is corneal epithelial wound in wild-type mice. The data set is described as follows: Corneal wound healing in a mouse model. Format: in vivo. The settings on record: day 0 to Day 5; treated vs control wild-type mice. From the text:
FIGS. 28A and 28B are images and a graph showing results of testing wound healing in a mouse model. FIG. 28A are representative slitlamp biomicroscopy images of murine cornea following the removal of corneal epithelium from Angio-3 treated and control wild-type mice and topical fluorescein staining of the epithelial defect (green). FIG. 28B is a graph of the percentage of wound defect remaining (vertical axis) over time (horizontal axis) in Angio-3 treated and control wild-type mice, n=6 for each group from 2 independent experiments. Both groups are statistically significant. Angio-3 didn't affect the normal wound healing process. Data is represented as mean±S.D.
Two (2)-mm trephine was used to mark the wound size. Epithelium, basement membrane and some stromal layers were removed by peeling using forceps. Fluorescein staining to the wounded area of cornea was done from day 0 to Day 5 (n=6 mice per group from 2 independent experiments). Gentle and meticulous approach when wounding and handling mouse cornea, fluorescein was diluted, slit lamp images had to be taken within a few seconds after staining. The wound area was quantified by ImageJ software. Student's t-test was used to compare data between two groups; P<0.05 was considered to be significant.

For data set [3], the system named is KIBA mice that overexpress hVEGF. The data set is described as follows: Retinal function tests (ERG) in KIBA/KIMBA mice overexpressing hVEGF. Format: in vivo, mouse. The settings on record: IVT treated; 2nd IVT at 12 weeks after 1st treatment. As for the experimental part: Eight-week-old KIBA mice that overexpress hVEGF were dark-adapted overnight (for at least 12 hours) and all the procedures were carried out under dim red light. Mice were anesthetized with a combination of ketamine (20 mg/kg body weight) and xylazine (2 mg/kg body weight). Pupils were dilated with a topical administration of 1% tropicamide (Alcon Laboratories, Inc., Fort Worth, Tex., USA) and 2.5% phenylephrine (Bausch and Lomb Pharmaceuticals, Inc., Tampa, Fla., USA) ophthalmic solutions.
Animals were placed in ERG recording table with body temperature controller for ERG recordings. Electroretinograms were recorded (Espion; Diagnosys LLC, Lowell, Mass., USA) with corneal monopolar electrodes. A goldcup electrode was placed in the mouth to serve as the reference electrode, and a silver-silver chloride electrode (Grass-Telefactor, West Warwick, R.I., USA) was placed in the tail to serve as the ground electrode. Recordings were performed at a wide range of stimulus intensity (−3.0 to 1.0 log cd·s/m2) in dark-adapted (scotopic) condition. The response a teach flash intensity was an average of at least five trials. […]
ERG was recorded from 8 weeks old to 24 weeks old of mice in untreated group (naïve group). In Angio-3 IVT treated group, ERG was recorded at 8 weeks old as baseline (BL) and then 6 and 12 weeks post treatment. […]

Data set [4] relates to laser-induced CNV in C57/BL6J (B6J) wild type mice. The data set is described as follows: Laser-induced choroidal neovascularization (CNV) model in mice, area of leakage by FFA. The settings on record: mice; IV route. Format: in vivo. The protocol:
as §1
FIG. 4A is a schematic of the experimental design on the efficacy of Angio-3 by IVT administration. […]
FIG. 11 A are FFA images of baseline and at different time points post treatment. Mice received single IVT injection of Angio-3 (at a dose of 1 μg in 1 μl or 100 ng in 1 μl), and chemically modified Angio-3 peptides Pep-N (at doses of 5 μg in μl; 1 μg in μl; and 100 ng in 1 μl, respectively) and Pep-Q peptides (at doses of 5 μg in μl; 1 μg in μl; and 100 ng in 1 μl, respectively). FIG. 11 B is a graph of the area of leakage by each eye. Single dose attenuates retinal angiogenesis in laser-induced mice CNV model via IVT route till 4 weeks. […] Eylea is the positive control. n=18 eyes per group; Values are expressed as means±s.e.m. n=3 independent experiment, **P<0.01, *P<0.05, student's t-test.
Laser induced choridal neo-vascularization (CNV) in C57/BL6J (B6J) wild type mice (n=90).
In B6J mice, single injection of 100 μl volume at 25 mg/kg Bwt concentration Angio-3 was injected via intravenous (i/v) route and this was tested in both Preventive mode (before laser) and Regression mode (4 days after laser). […]
Angio-3 was also injected via intravitreal (IVT) route, single injection of 1 μl volume at 2 different doses; 1 μg (High dose) and 100 ng (Low dose).
4 laser photocoagulation sites were placed concentrically around the optic disc of both eyes to induce CNVs. A diode laser (810 nm) was used with a relative potency scale of 120 mW for mice and 250 mW for rats, an exposure time of 0.05 s, and a spot size of […]. Laser spots were focused with crystal covers to avoid laser beam dispersion. Bubble formation was confirmed the rupture of Bruch's membrane.
Fundus photography and fundus fluorescein angiography (FFA) was imaged using a MICRON IV fundus camera (Phoenix Laboratories USA). For FFA, animals were intraperitoneally injected with 10% sodium fluorescein at a dose of 0.01 ml per 5-6 gm body weight.
In B6J mice, single intravitreous (IVT) injection of 100 ng, 1 μg, 5 μg PEP-Q, PEP-N (modified Angio-3), Angio-3 and Eylea were executed and this was tested in Prevention mode (before laser) Method of Llser induced CNV model and injection was described as above.

Where no end group is shown, it is not given here.

For “TPHTHNRTPE [Angio-3, Thr Pro His Thr His Asn Arg Thr Pro Glu]”, the “retinal function (ERG a- and b-wave amplitude)” value in data set [1] is “no significant difference in retinal function”. The “normal corneal wound healing process (percentage of wound defect remaining)” value in data set [2] was “didn't adversely affect the normal wound healing process”. In addition, the “ERG a and b-wave responses (retinal function)” value in data set [3] is “increased the a and b-wave responses for 6 weeks post treatment and then again increased the response for 20 weeks with second dose”. In data set [4], the “natural wound healing process, menstrual cycle and behavioural change (safety of systemic route)” value was “did not affect the natural wound healing process, menstrual cycle and behavioural change”.

(Values after patent US11266710B2, “Angio-3 for treatment of retinal angiogenic diseases” (SINGAPORE HEALTH SERVICES PTE LTD, priority 2017, dated 2022).)
